Test results reported in PubChem BioAssay (NCI).
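The compound was tested at five concentrations on cells cultured in 96-well plates, with a 48-hour exposure period. GI50: concentration for 50% inhibition of growth. TGI: total growth inhibition.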

How the values were obtained:
Assay in all cases: NCI tumour cell line growth inhibition, 48 h
A549 NSCLC = test system: A549 NSCLC
COLO 205 colon = test system: COLO 205 colon
HOP-62 NSCLC = test system: HOP-62 NSCLC
NCI-H23 lung = test system: NCI-H23 lung
NCI-H522 lung = test system: NCI-H522 lung
SF-539 CNS = test system: SF-539 CNS
SK-MEL-2 melanoma = test system: SK-MEL-2 melanoma
SK-MEL-28 melanoma = test system: SK-MEL-28 melanoma
SK-OV-3 ovarian = test system: SK-OV-3 ovarian
SN12C renal = test system: SN12C renal

| SMILES | GI50 (A549 NSCLC) | TGI (A549 NSCLC) | GI50 (COLO 205 colon) | TGI (COLO 205 colon) | GI50 (HOP-62 NSCLC) | TGI (HOP-62 NSCLC) | GI50 (NCI-H23 lung) | TGI (NCI-H23 lung) | GI50 (NCI-H522 lung) | TGI (NCI-H522 lung) | GI50 (SF-539 CNS) | TGI (SF-539 CNS) | GI50 (SK-MEL-2 melanoma) | TGI (SK-MEL-2 melanoma) | GI50 (SK-MEL-28 melanoma) | TGI (SK-MEL-28 melanoma) | GI50 (SK-OV-3 ovarian) | TGI (SK-OV-3 ovarian) | GI50 (SN12C renal) | TGI (SN12C renal) |
| --- | --- | --- | --- | --- | --- | --- | --- | --- | --- | --- | --- | --- | --- | --- | --- | --- | --- | --- | --- | --- |
| COc1ccc(OC(=O)O[C@H]2[C@H](O[C@H]3[C@@H](O)COC(O[C@H]4C[C@H]5[C@@H]6CC=C7C[C@@H](O)CC[C@]7(C)[C@H]6CC[C@]5(C)[C@H]4[C@H](C)C(=O)CCC(C)C)[C@@H]3OC(C)=O)OC[C@@H](O)[C@@H]2O)cc1 (some centres not stated) | 0.145 µM | 21.9 µM | 0.164 µM | 1.16 µM | 0.0569 µM | 11.4 µM | 0.966 µM | 19.1 µM | 0.165 µM | 2.1 µM | < 0.01 µM | 0.0764 µM | 0.0199 µM | 0.645 µM | 0.0185 µM | 0.155 µM | 0.329 µM | 15.3 µM | 11.2 µM | 23.8 µM |
| CCN(CC)C(=O)C/C(C)=N/NC(=O)c1ccncc1 | – | > 100 µM | – | > 100 µM | – | > 100 µM | – | > 100 µM | – | > 100 µM | – | > 100 µM | – | > 100 µM | – | > 100 µM | – | > 100 µM | – | – |
| COc1ccc(C(=O)O)c(Cc2cccc3ccccc23)c1 | – | > 100 µM | – | > 100 µM | – | > 100 µM | – | > 100 µM | – | > 100 µM | – | – | – | > 100 µM | – | > 100 µM | – | > 100 µM | – | > 100 µM |
| Cc1cccc(N2C(=O)C(Cl)=C(Cl)C2=O)c1 | – | > 100 µM | – | > 100 µM | – | > 100 µM | – | > 100 µM | – | 22.7 µM | – | > 100 µM | – | > 100 µM | – | > 100 µM | – | > 100 µM | – | > 100 µM |
| CC[C@H](C)[C@H](NC(=O)[C@H]1CCCCN1C)C(=O)N(C)[C@H](CCc1nc(C(=O)N[C@@H](Cc2ccccc2)C[C@H](C)C(=O)OC)cs1)C(C)C | 1.1 µM | > 25 µM | 0.167 µM | 0.916 µM | 0.777 µM | > 22.9 µM | 0.866 µM | > 25 µM | 0.0446 µM | 0.143 µM | 0.464 µM | 1.53 µM | 0.104 µM | 15.9 µM | 2.06 µM | > 25 µM | 0.797 µM | > 25 µM | 0.773 µM | > 25 µM |
| O=c1[nH]c(=O)n(C2CC(O)C(CS)O2)cc1F (configuration not stated) | – | > 100 µM | – | > 100 µM | – | > 93.8 µM | – | > 100 µM | – | > 100 µM | – | > 90.2 µM | – | > 100 µM | – | > 100 µM | – | > 100 µM | – | > 100 µM |
| CCCNC(=S)N/N=C(\C)c1ccccn1 | 0.447 µM | > 100 µM | 0.04 µM | > 100 µM | 0.517 µM | 17.6 µM | 0.022 µM | > 100 µM | 3.22 µM | > 100 µM | 0.847 µM | > 30.9 µM | 3.58 µM | > 100 µM | 1.98 µM | > 100 µM | 0.615 µM | > 100 µM | 0.268 µM | > 100 µM |
| COC(=O)C1=C(c2ccc3c(c2)OCO3)O[C@H](c2ccc3c(c2)OCO3)[C@H]1COC(C)=O | – | > 100 µM | – | 28.9 µM | – | > 100 µM | – | > 100 µM | – | – | – | > 100 µM | – | > 100 µM | – | > 100 µM | – | > 100 µM | – | > 100 µM |
| COc1ccc(C2CC(=O)c3c(O)c(OC)c(OC)c(OC)c3O2)c(O)c1 (configuration not stated) | 0.41 µM | 28.8 µM | 4.43 µM | 18 µM | 0.211 µM | 28.2 µM | 0.392 µM | 18.6 µM | 0.0326 µM | 0.188 µM | 0.14 µM | 9.39 µM | 0.0809 µM | 23.4 µM | 10.5 µM | 25.6 µM | 0.308 µM | 24.8 µM | 1.23 µM | 70.4 µM |
| Cc1cc(NS(=O)(=O)c2ccc(NC(=O)c3cccc4c(=O)c5ccccc5[nH]c34)cc2)no1 | – | > 100 µM | – | > 100 µM | – | 50.6 µM | – | > 100 µM | – | 56.6 µM | – | > 100 µM | – | > 100 µM | – | > 100 µM | – | 72.7 µM | – | > 100 µM |
| O=S(O)CCCCSSCCCCSSCCCCS(=O)O | – | > 100 µM | – | 83.6 µM | – | – | – | > 100 µM | – | 35.6 µM | – | > 100 µM | – | > 100 µM | – | > 100 µM | – | > 100 µM | – | > 100 µM |
| O=C(C[C@@H](C(=O)NCc1cccc(C(F)(F)F)c1)N1C(=O)[C@@H](N2C(=O)OC[C@@H]2c2ccccc2)[C@H]1/C=C/c1ccccc1)NC1CCN(Cc2ccccc2)CC1 | 5.86 µM | 21.4 µM | 2.48 µM | 7.12 µM | 14.5 µM | 27.7 µM | 4.19 µM | 17.6 µM | 2.81 µM | 13.2 µM | 2.03 µM | 3.98 µM | 14.1 µM | 30.6 µM | 2.19 µM | 5.8 µM | 15.3 µM | 28.6 µM | 9.46 µM | 30.7 µM |
| CC(=O)[O][Hg][c]1c(C)c(C)c(C)c(C)c1C | 10.7 µM | 27.8 µM | 2.7 µM | 7.14 µM | 2.05 µM | 4.35 µM | 0.98 µM | 2.52 µM | 1.41 µM | 3.02 µM | 1.66 µM | 3.25 µM | 1.41 µM | 3.37 µM | 1.26 µM | 2.63 µM | 2.69 µM | 6.04 µM | 1.53 µM | 2.97 µM |
| CCOC(=O)NC(=O)c1cn(CCCOC(=O)NCCCCCCNC(=O)OCCCn2c(=O)c(C(=O)NC(=O)OCC)cn(C)c2=O)c(=O)n(C)c1=O | – | > 100 µM | – | > 100 µM | – | – | – | > 100 µM | – | > 100 µM | – | – | – | > 100 µM | – | > 100 µM | – | > 100 µM | – | > 100 µM |
| C#CC[C@]12CC(=O)CC[C@H]1CC(=O)C2 | – | > 100 µM | – | > 100 µM | – | > 100 µM | – | – | – | > 100 µM | – | > 100 µM | – | > 100 µM | – | > 100 µM | – | > 100 µM | – | > 100 µM |
| CCOC(=O)[C@H]1Nc2ccc(C)cc2C2c3ccccc3CC21 (some centres not stated) | – | > 100 µM | – | > 100 µM | – | > 100 µM | – | > 100 µM | – | > 100 µM | – | > 100 µM | – | > 100 µM | – | > 100 µM | – | – | – | > 100 µM |
